# Source: patent publication US11858910B2, “Pyridinylmethylenepiperidine derivatives and uses thereof” (SUNSHINE LAKE PHARMA CO., LTD., priority 2018, dated 2024)
# Like-named read-outs stand apart in the source and are kept apart here.
# How the values were obtained:
# human 5-HT1F receptor = target: T1, human 5-HT1F receptor (Homo sapiens, UniProt P30939); assay: Activating effect on human 5-HT1F receptor transfected CHO-K1 cells (HitHunter cAMP detection kit); assay type: cell-based
# T1 construct: expressed in transfected cells; host or cells: CHO-K1
# T1 sequence (P30939 1-366): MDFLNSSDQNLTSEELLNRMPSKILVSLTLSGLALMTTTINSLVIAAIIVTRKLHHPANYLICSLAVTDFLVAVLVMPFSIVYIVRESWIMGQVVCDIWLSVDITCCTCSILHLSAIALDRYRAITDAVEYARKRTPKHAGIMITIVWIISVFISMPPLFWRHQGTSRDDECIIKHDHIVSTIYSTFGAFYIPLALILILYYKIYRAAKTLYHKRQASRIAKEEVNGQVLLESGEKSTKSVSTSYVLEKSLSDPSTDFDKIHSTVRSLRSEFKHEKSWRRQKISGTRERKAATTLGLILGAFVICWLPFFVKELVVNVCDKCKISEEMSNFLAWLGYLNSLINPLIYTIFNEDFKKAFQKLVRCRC
# Experimental: Experimental purposes: To evaluate the activating effect of the compound on CHO-K1 cells transfected human 5-HT1F receptor by using HitHunter cAMP detection kit.
# Experimental brief process: CHO-K1 cells were cultured in a 384 microporous plate. The volume of cell culture medium (Assay Complete™ Cell Plating Reagent, DIscoverX) was 20 μL and the cell density was 10,000/well. The cells were cultured overnight at 37° C. and 5% CO2. Then the culture medium was removed, and 15 μL of cAMP Assay Buffer (DIscoverX) was added into each well, and then 5 μL of test sample containing 4× sample (test compound or 5-HT) and 4× forskolin (final concentration of forskolin is 15 μM) was added. The microporous plate was placed at 37° C. for 30 minutes. Then 5 μL of cAMP Antibody Reagent (DiscoverX) and 20 μL of cAMP Working Detection Solution (DiscoverX) were added and incubated in the dark for 1 hour, and then 20 μL of cAMP Solution A was added and incubated in the dark for 3 hours. The microporous plate was placed in the Perkin Elmer Envision™ to read the intensity of the optical signal. The activation rate was calculated by the intensity of the optical signal obtained from testing the compounds with different concentrations ((1−(Y/Z))*100%=the activation rate, wherein, Y represents the intensity of the optical signal adding test sample, and Z represents the intensity of the optical signal adding only forskolin). The dose-effect curve of the compounds was calculated by Prism software, and the concentration of the agonist with half maximum response was calculated and expressed by EC50 value. The results were shown in Table A. 5-HT was used as a positive control drug to ensure the normal experimental system in this experiment.
# [1] = Pharmacokinetic evaluation after intravenous or gavage administration to dogs; assay type: in vivo, Beagle dogs
# Experimental: (§1) The inventors had evaluated the pharmacokinetics of the compounds of the invention in rats and dogs. Wherein animal information was detailed in Table 1.
# (§2) The compound was administered to the animal subjects in the form of 5% DMSO+60% PEG400+35% Saline solution or 10% DMSO+10% Kolliphor HS15+30% PEG400+50% Saline solution. The animals were fasted for 12 hours before administration, but drinking water freely. For the group of intravenous administration, the administration dose is 0.5 mg/kg or 1 mg/kg, and vein blood samples (0.15 mL) were collected at the time points of 0.083, 0.25, 0.5, 1.0, 2.0, 4.0, 6.0, 8.0 and 24 h (dogs) or 0.083, 0.25, 0.5, 1.0, 2.0, 5.0, 7.0 and 24 h (rats) after drug administration. EDTA-K2 as anticoagulant was pre-added into the blood vessel. The plasma solutions were collected by centrifuging each blood sample at 12,000 rpm for 2 minutes and kept at −20° C. or −70° C. For the group of gavage administration, the administration dose is 2.5 mg/kg or 5 mg/kg, and vein blood samples (0.15 mL) were collected at the time points of 0.25, 0.5, 1.0, 2.0, 4.0, 6.0, 8.0 and 24 h (dogs) or 0.25, 0.5, 1.0, 2.0, 5.0, 7.0 and 24 h (rats) after drug administration. EDTA-K2 as anticoagulant was pre-added into the blood vessel. The plasma solutions were collected by centrifuging each blood sample at 12,000 rpm for 2 minutes and kept at −20° C. or −70° C.
# (§3) After processing the above plasma sample (the frozen plasma was melted at room temperature and then whirled for 15 seconds. 10 to 20 μL of the plasma was taken out, and whirled with 120 to 150 μL of an acetonitrile solution containing an internal standard for 5 minutes. The mixture was centrifuged for 5 minutes at 4,000 rpm. 100 μL of the supernatant was taken out and mixed with 120 to 150 μL of methanol-water (v/v=1/1)), the concentration of compounds in plasma was analyzed by LC-MS/MS. […] The compound of the invention has better drug properties and better clinical application prospects. Wherein the pharmacokinetic parameters of examples 12 and 19 in rats were detailed in Table B1; the pharmacokinetic parameters of examples 12 and 19 in dogs were detailed in Table B2.
# [2] = Pharmacokinetic evaluation after intravenous or gavage administration to rats; assay type: in vivo, SD rats
# Experimental: as §1, §2, §3
# [3] = CHO-K1 cells, forskolin 15 μM, cAMP, read-out: EC50
# [4] = Beagle, dog, in vivo, iv, 0.5 mg/kg
# [5] = beagle, dog, in vivo, po, 2.5 mg/kg
smiles,measurement,setting,value
"CN1CCC(=Cc2cccc(NC(=O)c3ccc(F)cc3F)n2)CC1 [Example 3, 2,4-difluoro-N-(6-((1-methylpiperidin-4-ylidene)methyl)pyridine-2-yl)benzamide]",EC50,human 5-HT1F receptor; [3],5.9 nM
"CN1CCC(=Cc2cccc(NC(=O)c3c(F)cc(F)cc3F)n2)CC1 [Example 5, 2,4,6-trifluoro-N-(6-((1-methylpiperidin-4-ylidene)methyl)pyridine-2-yl)benzamide]",EC50,human 5-HT1F receptor; [3],1.9 nM
"CN1CCC(=C(F)c2cccc(NC(=O)c3ccc(F)cc3F)n2)CC1 [Example 10, 2,4-difluoro-N-(6-(fluoro(1-methylpiperidin-4-ylidene)methyl)pyridine-2-yl)benzamide]",EC50,human 5-HT1F receptor; [3],3 nM
"CN1CCC(=C(F)c2cccc(NC(=O)c3c(F)cc(F)cc3F)n2)CC1 [Example 12, 2,4,6-trifluoro-N-(6-(fluoro(1-methylpiperidin-4-ylidene)methyl)pyridine-2-yl)benzamide]",EC50,human 5-HT1F receptor,1.5 nM
same,AUC(0-inf),"[1]; Beagle, dog, plasma, iv, dogs, i.v group, 1 mg/kg, read-out: AUCINF",660 ng·h/mL
same,AUC(0-t),"[1]; Beagle, dog, plasma, iv, dogs, i.v group, 1 mg/kg, read-out: AUClast",652 ng·h/mL
same,clearance,"[1]; Beagle, dog, plasma, iv, dogs, i.v group, 1 mg/kg, read-out: Cl",25.2 mL/min/kg
same,Cmax,"[1]; Beagle, dog, plasma, iv, dogs, i.v group, 1 mg/kg, read-out: Cmax",170 ng/mL
same,MRT inf,"[1]; Beagle, dog, plasma, iv, dogs, i.v group, 1 mg/kg, read-out: MRTINF",4.11 h
same,half-life,"[1]; Beagle, dog, plasma, iv, dogs, i.v group, 1 mg/kg, read-out: T1/2 (converted)",3.52 h
same,Tmax,"[1]; Beagle, dog, plasma, iv, dogs, i.v group, 1 mg/kg, read-out: Tmax",0.25 h
same,Vd,"[1]; Beagle, dog, plasma, iv, dogs, i.v group, 1 mg/kg, read-out: Vss",6.22 L/kg
same,AUC(0-inf),"[1]; Beagle, dog, plasma, po, dogs, i.g group, 5 mg/kg, read-out: AUCINF",705 ng·h/mL
same,AUC(0-t),"[1]; Beagle, dog, plasma, po, dogs, i.g group, 5 mg/kg, read-out: AUClast",691 ng·h/mL
same,Cmax,"[1]; Beagle, dog, plasma, po, dogs, i.g group, 5 mg/kg, read-out: Cmax",82.8 ng/mL
same,MRT inf,"[1]; Beagle, dog, plasma, po, dogs, i.g group, 5 mg/kg, read-out: MRTINF",5.98 h
same,half-life,"[1]; Beagle, dog, plasma, po, dogs, i.g group, 5 mg/kg, read-out: T1/2 (converted)",4.28 h
same,Tmax,"[1]; Beagle, dog, plasma, po, dogs, i.g group, 5 mg/kg, read-out: Tmax",1.67 h
same,F,"[1]; dogs, i.g group, 5 mg/kg",21.4%
same,AUC(0-inf),"[2]; SD, rat, plasma, iv, rats, i.v group, 1 mg/kg, read-out: AUCINF",114 ng·h/mL
same,AUC(0-t),"[2]; SD, rat, plasma, iv, rats, i.v group, 1 mg/kg, read-out: AUClast",111 ng·h/mL
same,clearance,"[2]; SD, rat, plasma, iv, rats, i.v group, 1 mg/kg, read-out: Cl",146 mL/min/kg
same,Cmax,"[2]; SD, rat, plasma, iv, rats, i.v group, 1 mg/kg, read-out: Cmax",80.5 ng/mL
same,MRT inf,"[2]; SD, rat, plasma, iv, rats, i.v group, 1 mg/kg, read-out: MRTINF",1.66 h
same,half-life,"[2]; SD, rat, plasma, iv, rats, i.v group, 1 mg/kg, read-out: T1/2 (converted)",1.38 h
same,Tmax,"[2]; SD, rat, plasma, iv, rats, i.v group, 1 mg/kg, read-out: Tmax",0.083 h
same,Vd,"[2]; SD, rat, plasma, iv, rats, i.v group, 1 mg/kg, read-out: Vss",14.6 L/kg
same,AUC(0-inf),"[2]; SD, rat, plasma, po, rats, i.g group, 5 mg/kg, read-out: AUCINF",354 ng·h/mL
same,AUC(0-t),"[2]; SD, rat, plasma, po, rats, i.g group, 5 mg/kg, read-out: AUClast",296 ng·h/mL
same,Cmax,"[2]; SD, rat, plasma, po, rats, i.g group, 5 mg/kg, read-out: Cmax",71.8 ng/mL
same,MRT inf,"[2]; SD, rat, plasma, po, rats, i.g group, 5 mg/kg, read-out: MRTINF",4.05 h
same,half-life,"[2]; SD, rat, plasma, po, rats, i.g group, 5 mg/kg, read-out: T1/2 (converted)",2.31 h
same,Tmax,"[2]; SD, rat, plasma, po, rats, i.g group, 5 mg/kg, read-out: Tmax",2 h
same,F,"[2]; rats, i.g group, 5 mg/kg",62%
"CCN1CCC(=C(F)c2cccc(NC(=O)c3c(F)cc(F)cc3F)n2)CC1 [Example 19, 2,4,6-trifluoro-N-(6-(fluoro(1-ethylpiperidin-4-ylidene)methyl)pyridin-2-yl)benzamide]",EC50,human 5-HT1F receptor; [3],6.8 nM
same,F,"[1]; Beagle, dog, in vivo, 2.5 mg/kg",12.4%
same,AUC(0-inf),[1]; [4],634 ng·h/mL
same,AUC(0-t),[1]; [4],632 ng·h/mL
same,Cmax,[1]; [4],442 ng/mL
same,MRT inf,[1]; [4],1.39 h
same,Tmax,[1]; [4],0.083 h
same,Vd,[1]; [4],1.1 L/kg
same,clearance,[1]; [4],13.1 mL/min/kg
same,half-life,[1]; [4],1.06 h
same,AUC(0-inf),[1]; [5],392 ng·h/mL
same,AUC(0-t),[1]; [5],356 ng·h/mL
same,Cmax,[1]; [5],126 ng/mL
same,MRT inf,[1]; [5],3.26 h
same,Tmax,[1]; [5],1 h
same,half-life,[1]; [5],1.96 h
same,F,"[2]; SD, rat, in vivo, 5 mg/kg",105%
same,AUC(0-inf),"[2]; SD, rat, in vivo, iv, 1 mg/kg",259 ng·h/mL
same,AUC(0-t),"[2]; SD, rat, in vivo, iv, 1 mg/kg",240 ng·h/mL
same,Cmax,"[2]; SD, rat, in vivo, iv, 1 mg/kg",67.7 ng/mL
same,MRT inf,"[2]; SD, rat, in vivo, iv, 1 mg/kg",2.95 h
same,Tmax,"[2]; SD, rat, in vivo, iv, 1 mg/kg",0.5 h
same,Vd,"[2]; SD, rat, in vivo, iv, 1 mg/kg",11.4 L/kg
same,clearance,"[2]; SD, rat, in vivo, iv, 1 mg/kg",64.4 mL/min/kg
same,half-life,"[2]; SD, rat, in vivo, iv, 1 mg/kg",2.1 h
same,AUC(0-inf),"[2]; SD, rat, in vivo, po, 5 mg/kg",1320 ng·h/mL
same,AUC(0-t),"[2]; SD, rat, in vivo, po, 5 mg/kg",1260 ng·h/mL
same,Cmax,"[2]; SD, rat, in vivo, po, 5 mg/kg",169 ng/mL
same,MRT inf,"[2]; SD, rat, in vivo, po, 5 mg/kg",5.01 h
same,Tmax,"[2]; SD, rat, in vivo, po, 5 mg/kg",3.67 h
same,half-life,"[2]; SD, rat, in vivo, po, 5 mg/kg",3.06 h
